pIC50: −log10 of the molar value.
How the values were obtained:
Format in all cases: functional
[1] = biological target: Integrin alpha-IIb/beta-3 (Homo sapiens, UniProt P05106+P08514); assay: Antagonistic activity against fibrinogen receptor
Integrin alpha-V/beta-3 = Integrin alpha-V/beta-3 (Homo sapiens, UniProt P05106+P06756); assay: Antagonistic activity against vitronectin receptor
[2] = Antagonistic activity against Vitronectin receptor protein ( alpha v beta 3 ) by ELISA assay

Sequence of Integrin alpha-IIb/beta-3 (P05106 27-788 limits assumed): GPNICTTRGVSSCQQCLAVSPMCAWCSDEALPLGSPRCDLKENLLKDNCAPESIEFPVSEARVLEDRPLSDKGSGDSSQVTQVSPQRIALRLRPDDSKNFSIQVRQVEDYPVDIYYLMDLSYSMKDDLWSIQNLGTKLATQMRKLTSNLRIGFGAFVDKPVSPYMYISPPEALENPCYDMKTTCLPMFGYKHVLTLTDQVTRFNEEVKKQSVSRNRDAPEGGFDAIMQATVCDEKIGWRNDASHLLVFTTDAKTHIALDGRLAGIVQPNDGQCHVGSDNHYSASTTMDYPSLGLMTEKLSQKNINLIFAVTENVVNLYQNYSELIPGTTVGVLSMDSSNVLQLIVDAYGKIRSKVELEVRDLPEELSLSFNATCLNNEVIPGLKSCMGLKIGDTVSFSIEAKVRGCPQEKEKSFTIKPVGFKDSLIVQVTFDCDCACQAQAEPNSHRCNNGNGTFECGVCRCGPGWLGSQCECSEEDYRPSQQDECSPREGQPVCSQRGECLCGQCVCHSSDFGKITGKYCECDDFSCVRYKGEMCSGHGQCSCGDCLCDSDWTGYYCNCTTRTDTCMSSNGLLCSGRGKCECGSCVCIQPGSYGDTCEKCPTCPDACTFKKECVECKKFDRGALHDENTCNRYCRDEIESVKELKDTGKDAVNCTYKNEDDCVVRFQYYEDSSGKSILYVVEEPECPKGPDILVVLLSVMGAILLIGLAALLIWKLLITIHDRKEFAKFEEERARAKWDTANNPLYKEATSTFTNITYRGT
Sequence of Integrin alpha-IIb/beta-3 (P08514 32-887 limits assumed): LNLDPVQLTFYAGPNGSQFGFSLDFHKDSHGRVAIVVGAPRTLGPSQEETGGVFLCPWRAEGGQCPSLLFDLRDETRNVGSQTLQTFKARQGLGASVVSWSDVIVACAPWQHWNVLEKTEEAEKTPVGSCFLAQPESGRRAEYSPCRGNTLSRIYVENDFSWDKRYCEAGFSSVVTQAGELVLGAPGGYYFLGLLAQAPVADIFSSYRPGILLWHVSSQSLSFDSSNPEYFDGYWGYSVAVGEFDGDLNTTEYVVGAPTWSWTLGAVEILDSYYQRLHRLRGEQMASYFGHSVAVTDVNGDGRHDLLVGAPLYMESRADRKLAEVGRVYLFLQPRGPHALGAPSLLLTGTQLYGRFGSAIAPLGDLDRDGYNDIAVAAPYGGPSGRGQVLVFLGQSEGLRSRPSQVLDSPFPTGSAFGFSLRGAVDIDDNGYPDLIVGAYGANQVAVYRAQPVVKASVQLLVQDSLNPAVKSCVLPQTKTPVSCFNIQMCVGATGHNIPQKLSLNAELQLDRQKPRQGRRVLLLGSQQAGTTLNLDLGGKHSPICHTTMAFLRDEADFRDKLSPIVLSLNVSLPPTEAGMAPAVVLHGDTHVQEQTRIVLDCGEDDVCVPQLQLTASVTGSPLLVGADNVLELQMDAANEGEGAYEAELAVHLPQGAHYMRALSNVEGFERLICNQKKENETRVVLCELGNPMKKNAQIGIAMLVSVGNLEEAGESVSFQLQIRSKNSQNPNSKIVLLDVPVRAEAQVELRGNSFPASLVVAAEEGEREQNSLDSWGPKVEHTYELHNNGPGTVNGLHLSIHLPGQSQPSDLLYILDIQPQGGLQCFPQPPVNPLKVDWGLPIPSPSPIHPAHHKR
Sequence of Integrin alpha-IIb/beta-3 (P08514 891-1039 limits assumed): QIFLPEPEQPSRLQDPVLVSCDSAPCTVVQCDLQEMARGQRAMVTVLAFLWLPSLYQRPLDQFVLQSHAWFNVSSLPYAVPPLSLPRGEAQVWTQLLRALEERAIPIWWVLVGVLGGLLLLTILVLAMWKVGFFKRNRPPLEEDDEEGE
Sequence of Integrin alpha-V/beta-3 (P05106 27-788 limits assumed): as the sequence (P05106 27-788 limits assumed) above
Sequence of Integrin alpha-V/beta-3 (P06756 31-889 limits assumed): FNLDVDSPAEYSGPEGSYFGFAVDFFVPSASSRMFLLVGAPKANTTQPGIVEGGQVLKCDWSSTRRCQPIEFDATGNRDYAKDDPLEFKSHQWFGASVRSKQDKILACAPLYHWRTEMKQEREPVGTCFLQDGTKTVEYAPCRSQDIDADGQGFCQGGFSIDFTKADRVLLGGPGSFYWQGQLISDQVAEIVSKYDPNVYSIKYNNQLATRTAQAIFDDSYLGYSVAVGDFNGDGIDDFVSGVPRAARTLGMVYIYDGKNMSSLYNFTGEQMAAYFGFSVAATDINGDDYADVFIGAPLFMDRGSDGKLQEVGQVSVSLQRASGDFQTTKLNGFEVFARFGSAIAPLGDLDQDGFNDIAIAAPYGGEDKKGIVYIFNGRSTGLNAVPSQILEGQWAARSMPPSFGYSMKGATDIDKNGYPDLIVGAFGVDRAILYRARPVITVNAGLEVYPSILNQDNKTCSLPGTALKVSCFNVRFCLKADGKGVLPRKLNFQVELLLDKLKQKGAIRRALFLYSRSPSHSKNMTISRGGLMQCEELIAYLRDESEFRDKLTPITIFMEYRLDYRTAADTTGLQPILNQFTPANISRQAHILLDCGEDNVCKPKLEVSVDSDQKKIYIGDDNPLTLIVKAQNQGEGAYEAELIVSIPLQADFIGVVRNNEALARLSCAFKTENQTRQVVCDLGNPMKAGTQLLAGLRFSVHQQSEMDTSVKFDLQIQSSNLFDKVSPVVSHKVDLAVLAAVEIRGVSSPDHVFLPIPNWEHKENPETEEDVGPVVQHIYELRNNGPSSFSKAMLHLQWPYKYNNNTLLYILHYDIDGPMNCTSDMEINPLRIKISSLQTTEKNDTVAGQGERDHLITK
Sequence of Integrin alpha-V/beta-3 (P06756 891-1048 limits assumed): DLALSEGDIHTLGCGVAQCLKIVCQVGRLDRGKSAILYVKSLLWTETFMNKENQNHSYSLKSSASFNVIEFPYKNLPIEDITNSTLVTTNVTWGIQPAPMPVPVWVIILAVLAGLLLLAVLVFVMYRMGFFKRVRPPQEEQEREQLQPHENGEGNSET

SMILES | pIC50 [1] | pIC50 (Integrin alpha-V/beta-3) | pIC50 [2]
N=C(N)NCCCCC1=NOC(CC(=O)NC[C@H](NC(=O)OCc2ccccc2)C(=O)O)C1 (stereo partly specified) | 6.10 | 6.74 | –
N=C(N)NCCCCC1CC(C(=O)NC[C@H](NS(=O)(=O)c2ccc(Cl)cc2)C(=O)O)=NO1 (stereo partly specified) | 5.59 | 7.92 | –
N=C(N)NCCCC1CC(C(=O)NC[C@H](NC(=O)OCc2ccccc2)C(=O)O)=NO1 (stereo partly specified) | 4.28 | 6.85 | –
N=C(N)NCCC1=NOC(C(=O)NC[C@H](NC(=O)OCc2ccccc2)C(=O)O)C1 (stereo partly specified) | < 4.00 | 5.59 | –
N=C(N)NCCCCC1CC(C(=O)NC[C@H](NS(=O)(=O)c2ccc(-c3ccccn3)s2)C(=O)O)=NO1 (stereo partly specified) | 6.16 | 8.10 | –
N=C(N)NCCC1=NOC(CCC(=O)NC[C@H](NC(=O)OCc2ccccc2)C(=O)O)C1 (stereo partly specified) | 4.64 | 6.32 | –
N=C(N)NCCCCC1CC(C(=O)NC[C@H](NC(=O)OCc2ccccc2)C(=O)O)=NO1 (stereo partly specified) | – | 7.64 | –
N=C(N)NCCCCC1CC(C(=O)NC[C@H](NS(=O)(=O)c2cccc3ccccc23)C(=O)O)=NO1 (stereo partly specified) | 5.46 | 7.80 | –
N=C(N)NCCC1CC(C(=O)NC[C@H](NC(=O)OCc2ccccc2)C(=O)O)=NO1 (stereo partly specified) | – | 7.18 | –
N=C(N)NCC1CC(CCC(=O)NC[C@H](NC(=O)OCc2ccccc2)C(=O)O)=NO1 (stereo partly specified) | < 4.00 | 6.51 | –
Cc1cc(C)c(S(=O)(=O)N[C@@H](CNC(=O)C2=NOC(CCCCN=C(N)N)C2)C(=O)O)c(C)c1 (stereo partly specified) | 6.47 | 9.15 | –
N=C(N)NCCCCC1CC(C(=O)NC[C@H](NS(=O)(=O)c2cccs2)C(=O)O)=NO1 (stereo partly specified) | 6.44 | 7.64 | –
N=C(N)NCCCCC1CC(C(=O)NC[C@H](NS(=O)(=O)c2ccc([N+](=O)[O-])cc2)C(=O)O)=NO1 (stereo partly specified) | 4.37 | 6.85 | –
N=C(N)NCCCCC1CC(C(=O)NC[C@H](NS(=O)(=O)c2ccccc2Br)C(=O)O)=NO1 (stereo partly specified) | 6.77 | 8.40 | –
N=C(N)NCCCC1=NOC(CCC(=O)NC[C@H](NC(=O)OCc2ccccc2)C(=O)O)C1 (stereo partly specified) | – | 7.00 | –
N=C(N)NCCC1=NOC(CC(=O)NC[C@H](NC(=O)OCc2ccccc2)C(=O)O)C1 (stereo partly specified) | 4.92 | 6.05 | –

SMILES | pIC50 [1] | pIC50 (Integrin alpha-V/beta-3) | pIC50 [2]
N=C(N)NCCCC1=NOC(CC(=O)NC[C@H](NC(=O)OCc2ccccc2)C(=O)O)C1 (stereo partly specified) | 4.92 | 7.14 | –
CN(C)c1cccc2c1ccc[n+]2S(=O)(=O)N[C@@H](CNC(=O)C1=NOC(CCCCN=C(N)N)C1)C(=O)[O-] (stereo partly specified) | 5.10 | 8.15 | –
N=C(N)NCCCCC1=NOC(CCC(=O)NC[C@H](NC(=O)OCc2ccccc2)C(=O)O)C1 (stereo partly specified) | 5.44 | 6.52 | –
N=C(N)NCCCC1=NOC(C(=O)NC[C@H](NC(=O)OCc2ccccc2)C(=O)O)C1 (stereo partly specified) | < 4.00 | 6.96 | –
N=C(N)NCCCCC1CC(C(=O)NC[C@H](NS(=O)(=O)c2cc(Cl)sc2Cl)C(=O)O)=NO1 (stereo partly specified) | 5.72 | 7.62 | –
N=C(N)NCCCCC1=NOC(C(=O)NC[C@H](NC(=O)OCc2ccccc2)C(=O)O)C1 (stereo partly specified) | 4.26 | – | 7.09
Cn1ccc(S(=O)(=O)N[C@@H](CNC(=O)C2=NOC(CCCCN=C(N)N)C2)C(=O)O)n1 (stereo partly specified) | 5.44 | 7.02 | –
N=C(N)NCCCCC1CC(C(=O)NC[C@H](NS(=O)(=O)c2ccc(F)cc2)C(=O)O)=NO1 (stereo partly specified) | 5.89 | 7.82 | –
Cc1cn(C)[n+](Cl)c1S(=O)(=O)N[C@@H](CNC(=O)C1=NOC(CCCCN=C(N)N)C1)C(=O)[O-] (stereo partly specified) | 6.66 | 8.70 | –
N=C(N)NCCCCCC1=NOC(C(=O)NC[C@H](NC(=O)OCc2ccccc2)C(=O)O)C1 (stereo partly specified) | 4.89 | 6.15 | –
N=C(N)NCCCCCC1=NOC(CC(=O)NC[C@H](NC(=O)OCc2ccccc2)C(=O)O)C1 (stereo partly specified) | 5.82 | 6.33 | –
CC(C)(C)c1ccc(S(=O)(=O)N[C@@H](CNC(=O)C2=NOC(CCCCNC(=N)N)C2)C(=O)O)cc1 (stereo partly specified) | 4.33 | 7.44 | –
COc1ccc(S(=O)(=O)N[C@@H](CNC(=O)C2=NOC(CCCCN=C(N)N)C2)C(=O)O)cc1 (stereo partly specified) | 6.34 | 7.92 | –
N=C(N)NCCC1CC(CCC(=O)NC[C@H](NC(=O)OCc2ccccc2)C(=O)O)=NO1 (stereo partly specified) | 4.77 | 7.06 | –
N=C(N)NCCCCC1CC(C(=O)NC[C@H](NS(=O)(=O)c2ccccc2)C(=O)O)=NO1 (stereo partly specified) | 6.11 | 7.96 | –
Cc1noc(C)c1S(=O)(=O)N[C@@H](CNC(=O)C1=NOC(CCCCN=C(N)N)C1)C(=O)O (stereo partly specified) | 6.07 | 7.85 | –

— ChEMBL document CHEMBL1131665, “Rapid synthesis of RGD mimetics with isoxazoline scaffolds on solid phase: identification of alphavbeta3 antagonists lead compounds” (Bioorg Med Chem Lett, 1999)
